Patent US20210309669A1, “Heterocyclic Spiro Compounds As MAGL Inhibitors” (Pfizer Inc., priority 2018, published 2021)
pIC50: −log10 of the molar value. Read-outs that look alike come from different tables or passages of the source.

Key:
[1] = molecular target: T1, human recombinant FAAH (Homo sapiens, UniProt O00519); test: FAAH inhibition enzymatic assay (Arachidonoyl-AMC substrate); format: biochemical; settings: 30 minute incubation; geometric mean; read-out: FAAH (T = 30 min) IC50
T1 construct: purchased Cayman 10010183
T1 sequence (O00519 1-579): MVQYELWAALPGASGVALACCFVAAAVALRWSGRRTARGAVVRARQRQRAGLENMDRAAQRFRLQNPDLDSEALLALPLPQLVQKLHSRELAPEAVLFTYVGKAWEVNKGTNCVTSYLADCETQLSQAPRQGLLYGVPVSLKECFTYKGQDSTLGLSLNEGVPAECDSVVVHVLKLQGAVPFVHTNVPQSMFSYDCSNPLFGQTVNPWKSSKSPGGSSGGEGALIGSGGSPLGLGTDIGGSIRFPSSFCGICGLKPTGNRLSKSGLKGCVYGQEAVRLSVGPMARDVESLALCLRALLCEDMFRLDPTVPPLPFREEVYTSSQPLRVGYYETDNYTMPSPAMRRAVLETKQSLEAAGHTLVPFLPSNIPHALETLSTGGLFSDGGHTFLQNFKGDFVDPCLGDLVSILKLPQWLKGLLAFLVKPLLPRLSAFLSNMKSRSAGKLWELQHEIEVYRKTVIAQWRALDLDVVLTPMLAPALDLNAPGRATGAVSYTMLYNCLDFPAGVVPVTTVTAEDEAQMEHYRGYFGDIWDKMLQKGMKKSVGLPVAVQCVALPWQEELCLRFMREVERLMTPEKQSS
Protocol: Assessment of FAAH inhibition utilizes human recombinant FAAH and the fluorescent substrate, Arachidonoyl-AMC. 400 nL of a test compound at decreasing concentrations was spotted into a 384-well back plate (PerkinElmer, 6007279) using a Labcyte Echo, followed by addition of 10 μl of FAAH enzyme (Cayman 10010183) in assay buffer (50 mM Tris, pH 9.0, 1 mM EDTA, i.e. ethylenediaminetetraacetic acid). After a 30 minute incubation at room temperature, 10 μL of Arachidonyl-AMCA was added in assay buffer with 16% DMSO. […] The reaction was allowed to progress for 60 minutes, after which the plate was read on a Molecular Devices FlexStation reader at an Ex/Em of 355/460. Percent inhibitions were calculated based on controls wells containing either no compound (0% inhibition) or a control compound (e.g., an FAAH inhibitor whose activity is known or was previously reported in the literature, such as one with about 100% inhibition). IC50 values were generated based on a four parameter fit model using ABASE software from IDBS.

[2] = molecular target: T2, human recombinant Monoacylglycerol Lipase (Homo sapiens, UniProt Q99685); test: MAGL inactivation (enzyme progress curves, kinact/KI); format: biochemical; settings: geometric mean
T2 sequence (Q99685 1-303): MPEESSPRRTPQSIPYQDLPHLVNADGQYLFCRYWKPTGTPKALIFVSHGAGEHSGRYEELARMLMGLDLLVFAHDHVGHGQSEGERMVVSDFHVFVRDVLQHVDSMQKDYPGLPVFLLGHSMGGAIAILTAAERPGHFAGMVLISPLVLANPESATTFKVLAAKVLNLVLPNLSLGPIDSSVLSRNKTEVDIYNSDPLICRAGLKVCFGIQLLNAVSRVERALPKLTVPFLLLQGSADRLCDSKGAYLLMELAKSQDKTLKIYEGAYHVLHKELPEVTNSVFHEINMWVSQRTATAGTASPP
Protocol: (§1) Assessment of MAGL inhibition utilizes human recombinant Monoacylglycerol Lipase and the fluorogenic substrate 7-hydroxycoumarinyl arachidonate (7-HCA, Biomol ST-502). 400 nL of a test compound at decreasing concentration (ranging from 150 μM down to 1.5 nM) was spotted into a 384-well back plate (PerkinElmer, 6007279) using a Labcyte Echo, followed by addition of 10 μL of MAGL enzyme in assay buffer (50 mM HEPES, pH 7.4, 100 mM NaCl, 5 mM MgCl2, 0.1% Triton X-100 and 25% glycerin). An equal volume of 7-HCA in assay buffer with 10% DMSO was added either immediately (T=0 min) or after a 30 minute incubation (T=30 min) to initiate the reaction. The final concentration of MAGL enzyme was […] and 7-HCA substrate was 5 μM. After these dilutions, the final concentration of the test compound ranged from 3 μM to 0.03 nM. The reaction was allowed to progress for 60 minutes, after which the plate was read at an Ex/Em of 340/465. Percent inhibitions were calculated based on control wells containing no compound (0% inhibition) and a control compound (e.g., a MAGL inhibitor whose activity is known or was previously reported in the literature, such as one with about 100% inhibition). IC50 values were generated based on a four parameter fit model using ABASE software from IDBS. See e.g., Wang, Y. et al., “A Fluorescence-Based Assay for Monoacylglycerol Lipase Compatible with Inhibitor Screening,” Assay and Drug Development Technologies, 2008, Vol. 6 (3) pp 387-393 (reporting an assay for measuring MAGL activity).
To measure MAGL inactivation, the same protocol for the (T=0 min) MAGL inhibition IC50 assay was performed with data collected every minute to acquire enzyme progress curves at decreasing concentrations of compound.

[3] = molecular target: T2, human recombinant Monoacylglycerol Lipase; test: MAGL inhibition enzymatic assay (7-HCA fluorogenic substrate); format: biochemical; settings: geometric mean
Protocol: as §1

[4] = In vitro intrinsic clearance in human liver microsomes (HLM); format: in vitro ADME; settings: pH 7.4, 1 μM substrate, NADPH, 37° C., read-out: HLM CLint, app
Protocol: Test Compounds (Example 1-3 and Comparative-Compounds 1-4) were prepared as solutions in DMSO. The final concentration of DMSO in the incubation was <0.1% (v/v). […] (all final concentrations) in a 384-well plate. The reaction mixture was pre-warmed at 37° C. for 10 min prior to initiation of the incubation. The incubation was quenched with acetonitrile containing internal standards at the following time points: 1, 4, 7, 12, 20, 25, 45, and 60 min (individual incubation plates per time point) with a subsequent addition of water. The samples were vortexed followed by centrifugation and the supernatant was analyzed by LC/MS-MS using multiple reaction monitoring. For control experiments, NADPH was omitted from the incubations.
The microsomal t½ (min) was obtained from a log-linear plot of the substrate depletion versus incubation time and was scaled to hepatic intrinsic clearance (CLint,app (μL/min/mg protein) using the following equation: […]

[5] = In vitro intrinsic clearance in human hepatocytes; format: in vitro ADME; settings: 1 μM substrate, human hepatocytes 0.5 million viable cells per mL, 37° C.
Protocol: Test Compounds (Example 1-3 and Comparative-Compounds 1-4) were prepared as solutions in DMSO at 3 mM which were then diluted in media containing WEM. The final concentration of DMSO in the incubation was 0.03% (v/v). The in vitro half-life (t½) of each compound was determined in incubations containing substrate (1 μM), human hepatocytes (0.5 million viable cells per mL final concentration) in media containing WEM, 50 mM HEPES buffer (pH 7.4), and 26 mM sodium bicarbonate at 37° C. (all final concentrations) in a 96-well plate. The reaction mixture was pre-warmed at 37° C. for 30 min prior to the initiation of the incubation. The incubation was quenched with acetonitrile containing internal standards at the following time points: 0, 5, 15, 30, 60, 120, and 240 min (individual incubation plates per time point). The samples were vortexed followed by centrifugation. An aliquot of supernatant was transferred to a clean 96-well plate and analyzed by LC/MS-MS using multiple reaction monitoring. For control experiments, hepatocytes were omitted from the incubations.
The hepatocyte t½ (min) was obtained from a log-linear plot of the substrate depletion versus incubation time and was scaled to hepatic intrinsic clearance (CLint,app (μL/min/million cells) using the following equation: […]

[6] = Dynamic vapor sorption (hygroscopicity); format: physicochemical; settings: 25° C.
Protocol: (§2) An automated vapor sorption analyzer (VTI SGA-CX; VTI scientific) was used to measure the hygroscopicity of the anhydrate of Form I of the invention. The microbalance was calibrated using a 100 mg standard weight. The relative humidity sensor was calibrated at 5.0, 11.3, 32.8, 52.8, 75.3, and 84.3% RH (25° C.) using saturated salt solutions, as well as 80% RH (25° C.) using polyvinylpyrrolidone. Approximately 8-10 mg of the powder sample was placed in the platinum sample pan and dried at 3% relative humidity (RH) at 25° C. with a heating rate of 1° C. per minute. The attainment of equilibrium was assumed when the weight change of the sample was <0.001 wt % in 5 min or by a maximum equilibration time of 120 minutes. […] Again, the attainment of equilibrium was assumed when the weight change of the sample was <0.001 wt % in 5 min or by a maximum equilibration time of 120 minutes. The weight gain at the end of the sorption cycle (90% RH) was calculated on the basis of the dry weight.
as §2, with “Moisture/Water sorption and desorption studies were conducted on automated” for “An automated”, “analyzer (TA instruments Q5000 SA).” for “analyzer (VTI SGA-CX; VTI scientific) was used to measure the hygroscopicity of the anhydrate of Form I of the invention.”, “salt solutions.” for “salt solutions, as well as 80% RH (25° C.) using polyvinylpyrrolidone.”, “Approximately 10-20” for “Approximately 8-10”, “at ≤3%” for “at 3%”, “C.” for “C. with a heating rate of 1° C. per minute.”

[7] = 30 minute incubation before substrate, read-out: MAGL (T = 30 min) IC50
[8] = substrate added immediately (T=0 min), read-out: MAGL (T = 0 min) IC50

In the case of `O=C(OC(C(F)(F)F)C(F)(F)F)N1CCC2(CCC(NS(=O)(=O)CC3CC3)CO2)CC1` (single isomer, unassigned; ent-1) [Example 4, 1,1,1,3,3,3-Hexafluoropropan-2-yl 3-{[(cyclopropylmethyl)sulfonyl]amino}-1-oxa-9-azaspiro[5.5]undecane-9-carboxylate, ENT-1], the pIC50 [1] was < 4.52, the “MAGL kinact/KI” value [2] was 3110 1/s per M and the pIC50 [3, 7] was 7.70. It also gave a pIC50 [3, 8] of 6.79.

With `O=C(OC(C(F)(F)F)C(F)(F)F)N1CCC2(CCC(NS(=O)(=O)CC3CC3)CO2)CC1` (single isomer, unassigned; ent-2) [Example 5, 1,1,1,3,3,3-Hexafluoropropan-2-yl 3-{[(cyclopropylmethyl)sulfonyl]amino}-1-oxa-9-azaspiro[5.5]undecane-9-carboxylate, ENT-2] the pIC50 [1] was < 4.52, the “MAGL kinact/KI” value [2] was 6930 1/s per M and the pIC50 [3, 7] was 8.00. The pIC50 [3, 8] was 6.99.

With `O=C(OC(C(F)(F)F)C(F)(F)F)N1CCC2(CC1)C[C@@H](NS(=O)(=O)c1ccccc1)CO2` [Comparative-Compound 4, 1,1,1,3,3,3-hexafluoropropan-2-yl (3R)-3-[(phenylsulfonyl)amino]-1-oxa-8-azaspiro[4.5]decane-8-carboxylate] the microsomal CLint at 1 μM [4] was 30.4 µL/min/mg and the “HHEPs CLint, app” value [5] was 27.5 μL/min/million.

With `O=C(OC(C(F)(F)F)C(F)(F)F)N1CCC2(CC1)C[C@@H](NS(=O)(=O)C1CC1)CO2` [Form A, 1,1,1,3,3,3-hexafluoropropan-2-yl(3R)-3-[(cyclopropylsulfonyl)amino]-1-oxa-8-azaspiro[4.5]decane-8-carboxylate] the DVS weight gain ([6]; 0-60% RH) was 0-60% RH, 25° C.: <0.1% weight gain, the DVS weight gain ([6]; 60% RH) was 60% RH, 25° C.: <0.1% weight gain and the DVS weight gain ([6]; 75% RH) was 75% RH, 25° C.: <0.1% weight gain. For the same compound, the DVS weight gain ([6]; 90% RH) was 90% RH, 25° C.: <0.1% weight gain and the DVS weight gain ([6]; at up to 90% RH) was “less than 0.1%”.

For `O=C(OC(C(F)(F)F)C(F)(F)F)N1CCC2(CC1)C[C@@H](NS(=O)(=O)CC1CC1)CO2` [Form I, 1,1,1,3,3,3-Hexafluoropropan-2-yl (3R)-3-{[(cyclopropylmethyl)sulfonyl]amino}-1-oxa-8-azaspiro[4.5]decane-8-carboxylate], the DVS weight gain ([6]; 0-60% RH) was 0-60% RH, 25° C.: <0.1% weight gain, the DVS weight gain ([6]; 60% RH) was 60% RH, 25° C.: <0.1% weight gain and the DVS weight gain ([6]; 75% RH) was 75% RH, 25° C.: <0.1% weight gain. For the same compound, the DVS weight gain ([6]; 90% RH) was 90% RH, 25° C.: <0.1% weight gain and the DVS weight gain ([6]; at up to 90% RH) was “less than 0.1%”.
